From patent US11925607B2, “Ketamine composition for use in a method of treatment of depression by pulmonary administration” (Celon Pharma S.A., priority 2018, dated 2024)

Legend:
[1] = system: patients with treatment-resistant depression; conditions: cited from earlier work
[2] = 0.20 mg/kg 40 minutes intravenous infusion, predicted from literature data; cited from earlier work
healthy volunteers = assay: Adverse effects monitoring in clinical study, assessed by a psychiatrist; type: in vivo, human; conditions: pulmonary administration
Method: Both in Part A and Part B of the study the adverse effects were monitored and assessed by a psychiatrist. The summary of the adverse effects is presented in FIG. 10 (Part A) and FIG. 11 (Part B). […] Psychomimetic effects were transient, lasting up to 30 minutes following administration. […] In Part C of the study adverse effects were monitored and assessed by a psychiatrist after each sequence of administration, i.e. on Day 1, Day 4, Day 8 and Day 11. The summary of adverse effects for Part C is presented on FIGS. 12A to 12D for Day 1, Day 4, Day 8 and Day 11, respectively. […] Psychomimetic effects were transient, lasting up to 30 minutes following administration.

[3] = Pharmacokinetics of inhaled esketamine dry powder in healthy volunteers, clinical study; type: in vivo, human; conditions: pulmonary administration, overall conclusion
Method: Esketamine hydrochloride dry powder formulation of Example 2 was administered to healthy volunteers pulmonary, i.e. directly to the lungs using dry powder inhaler (DPI) (by self-administration), under supervision of medical personnel.
One puff of dry powder formulation contained 4.6 mg of esketamine hydrochloride, corresponding to 4 mg of esketamine free base and excipients 18.22 mg of lactose monohydrate and 0.18 mg of magnesium stearate.
A single dose was an inhalation events consisting of 1 to 6 puffs, i.e. 4 to 24 mg of esketamine free base nominal dose.
In part A of the study, designed as a one-centre single ascending dose, the medicine was delivered in a single dose once in one day (up to 6 consecutive puffs) to 18 healthy volunteer subjects. Subjects were divided into 6 cohorts, cohorts receiving 1, 2, 3, 4, 5 or 6 puffs in a single dose (inhalation event), respectively. Collection of blood samples for determination of esketamine and esnorketamine metabolite concentration and calculation of pharmacokinetic parameters was performed for 24 hours following the start of the test in the administration day. The aim of the study was to determine the amount of puffs in an inhalation event needed to obtain plasma concentration similar to that sufficient to achieve antidepressant effect as for 0.20 mg/kg 40 minutes intravenous infusion. […]

NMDA receptor = conditions: cited from earlier work
[4] = cited from earlier work
[5] = cited from earlier work; remark: listed apart in the source
[6] = nebulized esketamine hydrochloride saline solution; cited from earlier work
[7] = after intravenous infusion of racemic ketamine
[8] = after oral administration of ketamine

For `CN[C@]1(c2ccccc2Cl)CCCCC1=O` [esketamine], the antidepressant effect ([1]; TRD patients, 40-minute i.v. infusion of 0.20 mg/kg or 0.40 mg/kg (Singh et al.)) is listed as “rapid onset of robust antidepressant effects”, the “concentration at 40 min of infusion” value [2] is listed as 60 to 100 ng/mL and the “safety of plasma concentration profile” value (healthy volunteers) is listed as “safe for chronic administration”. The Plasma concentration profile [3] was “quite smooth, consistent with a target profile”.

For `NC1(c2ccccc2Cl)CCCCC1=O` (centres unmarked) [norketamine], the “activity on NMDA receptor relative to ketamine” value (NMDA receptor) is given as “many times less active than ketamine”, the “maximum concentration as % of ketamine concentration” value [4, 7] is given as 10-20% and the “percentage of AUC norketamine to ketamine” value [4, 7] is given as 20-40%. For the same compound, the “AUC as % of ketamine” value [5, 8] was “exceeding 1000%” and the “level as % of ketamine level” value [5, 8] was 500-1000%.

In the case of `CNC1(c2ccccc2Cl)CCCCC1=O` (racemic) [ketamine], the inhaled bioavailability [6] is given as “reduced”, the “fraction of patients with treatment-resistant depression responsive” value ([1]; human, in vivo) is given as “about ⅔” and the “half-period of concentration fall” value ([4]; after intravenous infusion 0.5 mg/kg for 40 minutes) is given as “below 2 hours”. For the same compound, the “systemic concentration of parent drug” value ([4]; intravenous infusion 0.5 mg/kg for 40 minutes, maintained about 40 minutes) was “about 200 ng/ml” and the bioavailability ([5]; orally administered) was 16-20%.
